Source: PubChem BioAssay AID2060901 (Molecular Pharmacology Branch, DTP, NCI, 2025)

Test system: 422866-222-R5-J1-PDC complex spheroids viability
Experiment: Anticancer human tumor 422866-222-R5-J1-PDC patient-derived pancreatic adenocarcinoma cell line growth inhibition [RAS]
Details: for viability, T/C: stronger effect = lower value
Method in brief: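 Multi-cell-type spheroids: tumor cells plus HUVEC endothelial cells and mesenchymal stem cells. RAS-pathway inhibitors were combined with targeted agents, each dosed in half-log steps down from clinical Cmax, or from 10 microM when Cmax was unknown.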

[1] = curve of first compound, second compound 0.000949 µM
[2] = curve of first compound, second compound 0.003 µM
[3] = curve of first compound, second compound 0.00949 µM
[4] = curve of first compound, second compound 0.03 µM
[5] = curve of first compound, second compound 0.0949 µM
[6] = curve of first compound, second compound 0.3 µM
[7] = second compound 0.000949 µM, first compound 0.0316 µM
[8] = second compound 0.000949 µM, first compound 0.1 µM
[9] = second compound 0.000949 µM, first compound 0.316 µM
[10] = second compound 0.000949 µM, first compound 1 µM
[11] = second compound 0.003 µM, first compound 0.0316 µM
[12] = second compound 0.003 µM, first compound 0.1 µM
[13] = second compound 0.003 µM, first compound 0.316 µM
[14] = second compound 0.003 µM, first compound 1 µM
[15] = second compound 0.00949 µM, first compound 0.0316 µM
[16] = second compound 0.00949 µM, first compound 0.1 µM
[17] = second compound 0.00949 µM, first compound 0.316 µM
[18] = second compound 0.00949 µM, first compound 1 µM
[19] = second compound 0.03 µM, first compound 0.0316 µM
[20] = second compound 0.03 µM, first compound 0.1 µM
[21] = second compound 0.03 µM, first compound 0.316 µM
[22] = second compound 0.03 µM, first compound 1 µM
[23] = second compound 0.0949 µM, first compound 0.0316 µM
[24] = second compound 0.0949 µM, first compound 0.1 µM
[25] = second compound 0.0949 µM, first compound 0.316 µM
[26] = second compound 0.0949 µM, first compound 1 µM
[27] = second compound 0.3 µM, first compound 0.0316 µM
[28] = second compound 0.3 µM, first compound 0.1 µM
[29] = second compound 0.3 µM, first compound 0.316 µM
[30] = second compound 0.3 µM, first compound 1 µM
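Further: spheroids exposed to compounds for 7 days.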
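Wherever viability, T/C is given: 100% = DMSO vehicle control viability.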

## CCN1CCN(Cc2ccc(Nc3ncc(F)c(-c4cc(F)c5nc(C)n(C(C)C)c5c4)n3)nc2)CC1 + CCn1c(-c2cccnc2C(C)OC)c2c3cc(ccc31)N1CCOC(CC(NC(=O)C(C(C)C)N(C)C(=O)C3(F)CCN(C(=O)C#CC(C)(C)N(C)C)CC3)C(=O)N3CCCC(N3)C(=O)OCC(C)(C)C2)C1
[1]
  IC50: < 3.16 nM
[2]
  IC50: < 3.16 nM
[3]
  IC50: < 3.16 nM
[4]
  IC50: < 3.16 nM
[5]
  IC50: < 3.16 nM
[6]
  IC50: < 3.16 nM
Second compound 0.000949 µM, first compound 0.00316 µM
  viability, T/C: 30.8%
Second compound 0.000949 µM, first compound 0.01 µM
  viability, T/C: 26.9%
[7]
  viability, T/C: 27.2%
[8]
  viability, T/C: 25.8%
[9]
  viability, T/C: 30%
[10]
  viability, T/C: 39%
Second compound 0.003 µM, first compound 0.00316 µM
  viability, T/C: 23.8%
Second compound 0.003 µM, first compound 0.01 µM
  viability, T/C: 24.9%
[11]
  viability, T/C: 23.7%
[12]
  viability, T/C: 20.3%
[13]
  viability, T/C: 26.3%
[14]
  viability, T/C: 37.5%
Second compound 0.00949 µM, first compound 0.00316 µM
  viability, T/C: 25%
Second compound 0.00949 µM, first compound 0.01 µM
  viability, T/C: 21.9%
[15]
  viability, T/C: 20%
[16]
  viability, T/C: 21.5%
[17]
  viability, T/C: 25.3%
[18]
  viability, T/C: 37.5%
Second compound 0.03 µM, first compound 0.00316 µM
  viability, T/C: 20.6%
Second compound 0.03 µM, first compound 0.01 µM
  viability, T/C: 19.9%
[19]
  viability, T/C: 16.8%
[20]
  viability, T/C: 19.1%
[21]
  viability, T/C: 26.7%
[22]
  viability, T/C: 40.3%
Second compound 0.0949 µM, first compound 0.00316 µM
  viability, T/C: 18.5%
Second compound 0.0949 µM, first compound 0.01 µM
  viability, T/C: 21.1%
[23]
  viability, T/C: 19.7%
[24]
  viability, T/C: 18.6%
[25]
  viability, T/C: 27.5%
[26]
  viability, T/C: 37.2%
Second compound 0.3 µM, first compound 0.00316 µM
  viability, T/C: 19.9%
Second compound 0.3 µM, first compound 0.01 µM
  viability, T/C: 18.8%
[27]
  viability, T/C: 18.8%
[28]
  viability, T/C: 17.1%
[29]
  viability, T/C: 24%
[30]
  viability, T/C: 34.9%

## CCn1c(-c2cccnc2C(C)OC)c2c3cc(ccc31)N1CCOC(CC(NC(=O)C(C(C)C)N(C)C(=O)C3(F)CCN(C(=O)C#CC(C)(C)N(C)C)CC3)C(=O)N3CCCC(N3)C(=O)OCC(C)(C)C2)C1 (stereo unspecified)
Compound 0.000949 µM
  viability, T/C: 25.9% [middle of 8 runs]
Compound 0.003 µM
  viability, T/C: 23.3% [middle of 8 runs]
Compound 0.00949 µM
  viability, T/C: 21.9% [middle of 8 runs]
Compound 0.03 µM
  viability, T/C: 22.1% [middle of 8 runs]
Compound 0.0949 µM
  viability, T/C: 22.5% [middle of 8 runs]
Compound 0.3 µM
  viability, T/C: 20.2% [middle of 8 runs]
Compound alone, run of 05/20/2024
  IC50: < 0.949 nM

## CCC(CC)c1cc(NC2CCC(N)C2)n2nccc2n1 (stereo unspecified) + CCn1c(-c2cc(N3CCN(C)CC3)cnc2C(C)OC)c2c3cc(ccc31)-c1csc(n1)CC(NC(=O)C1CC1C)C(=O)N1CCCC(N1)C(=O)OCC(C)(C)C2
[1]
  IC50: < 31.6 nM
[2]
  IC50: < 31.6 nM
[3]
  IC50: < 31.6 nM
[4]
  IC50: < 31.6 nM
[5]
  IC50: < 31.6 nM
[6]
  IC50: < 31.6 nM
[7]
  viability, T/C: 36.1%
[8]
  viability, T/C: 34.6%
[9]
  viability, T/C: 36.9%
[10]
  viability, T/C: 38.4%
Second compound 0.000949 µM, first compound 3.16 µM
  viability, T/C: 15.5%
Second compound 0.000949 µM, first compound 10 µM
  viability, T/C: 51.6%
[11]
  viability, T/C: 22.1%
[12]
  viability, T/C: 24.1%
[13]
  viability, T/C: 24.7%
[14]
  viability, T/C: 27.2%
Second compound 0.003 µM, first compound 3.16 µM
  viability, T/C: 15.2%
Second compound 0.003 µM, first compound 10 µM
  viability, T/C: 50.2%
[15]
  viability, T/C: 23.4%
[16]
  viability, T/C: 24.7%
[17]
  viability, T/C: 23.6%
[18]
  viability, T/C: 25.8%
Second compound 0.00949 µM, first compound 3.16 µM
  viability, T/C: 17.8%
Second compound 0.00949 µM, first compound 10 µM
  viability, T/C: 46.1%
[19]
  viability, T/C: 20.7%
[20]
  viability, T/C: 20.4%
[21]
  viability, T/C: 24.9%
[22]
  viability, T/C: 27.7%
Second compound 0.03 µM, first compound 3.16 µM
  viability, T/C: 17.4%
Second compound 0.03 µM, first compound 10 µM
  viability, T/C: 57.6%
[23]
  viability, T/C: 21.6%
[24]
  viability, T/C: 22.1%
[25]
  viability, T/C: 26.9%
[26]
  viability, T/C: 32.8%
Second compound 0.0949 µM, first compound 3.16 µM
  viability, T/C: 18.4%
Second compound 0.0949 µM, first compound 10 µM
  viability, T/C: 49.6%
[27]
  viability, T/C: 22.4%
[28]
  viability, T/C: 22.3%
[29]
  viability, T/C: 25.7%
[30]
  viability, T/C: 32.3%
Second compound 0.3 µM, first compound 3.16 µM
  viability, T/C: 22.3%
Second compound 0.3 µM, first compound 10 µM
  viability, T/C: 51.4%
